Drawing on ChEMBL document CHEMBL3769397, “A new GLP-1 analogue with prolonged glucose-lowering activity in vivo via backbone-based modification at the N-terminus” (Bioorg Med Chem, 2016), this text covers Activity for two molecules.

What all share (type): functional
Experiment [1] concerns Mus musculus. The experiment in a line: Reduction in blood glucose in Kunming mouse assessed as blood glucose level at 25 nmol/kg, ip at administered 0 mins followed by first glucose challenge at 40 mins followed by second glucose challenge at 310 mins and measured at 40 mins by glucose tolerance test (reference value: 4.9 to 6.3 mmol/L).
Experiment [2] deals with Mus musculus. The experiment in a line: Reduction in blood glucose in Kunming mouse assessed as blood glucose level at 25 nmol/kg, ip at administered 0 mins followed by first glucose challenge at 40 mins followed by second glucose challenge at 310 mins and measured at 385 mins by glucose tolerance test (reference value: 4.9 to 6.3 mmol/L).
Experiment [3] concerns Mus musculus. The experiment in a line: Reduction in blood glucose in Kunming mouse assessed as blood glucose level at 25 nmol/kg, ip at administered 0 mins followed by first glucose challenge at 40 mins followed by second glucose challenge at 310 mins and measured at 350 mins by glucose tolerance test (reference value: 4.9 to 6.3 mmol/L).
Experiment [4] relates to Mus musculus. The experiment in a line: Reduction in blood glucose in Kunming mouse assessed as blood glucose level at 25 nmol/kg, ip at administered 0 mins followed by first glucose challenge at 40 mins followed by second glucose challenge at 310 mins and measured at 55 mins by glucose tolerance test (reference value: 4.9 to 6.3 mmol/L).
Experiment [5] relates to Mus musculus. The experiment in a line: Reduction in blood glucose in Kunming mouse assessed as blood glucose level at 25 nmol/kg, ip at administered 0 mins followed by first glucose challenge at 40 mins followed by second glucose challenge at 310 mins and measured at 80 mins by glucose tolerance test (reference value: 4.9 to 6.3 mmol/L).
Experiment [6] concerns Mus musculus. The experiment in a line: Reduction in blood glucose in Kunming mouse assessed as blood glucose level at 25 nmol/kg, ip at administered 0 mins followed by first glucose challenge at 40 mins followed by second glucose challenge at 310 mins and measured at 115 mins by glucose tolerance test (reference value: 4.9 to 6.3 mmol/L).
Experiment [7] relates to Mus musculus. The experiment in a line: Reduction in blood glucose in Kunming mouse assessed as blood glucose level at 25 nmol/kg, ip at administered 0 mins followed by first glucose challenge at 40 mins followed by second glucose challenge at 310 mins and measured at 160 mins by glucose tolerance test (reference value: 4.9 to 6.3 mmol/L).
In experiment [8] the test system is Mus musculus. The experiment in a line: Reduction in blood glucose in Kunming mouse assessed as blood glucose level at 25 nmol/kg, ip at administered 0 mins followed by first glucose challenge at 40 mins followed by second glucose challenge at 310 mins and measured at 310 mins by glucose tolerance test (reference value: 4.9 to 6.3 mmol/L).
Experiment [9] deals with Mus musculus. The experiment in a line: Reduction in blood glucose in Kunming mouse assessed as blood glucose level at 25 nmol/kg, ip at administered 0 mins followed by first glucose challenge at 40 mins followed by second glucose challenge at 310 mins and measured at 325 mins by glucose tolerance test (reference value: 4.9 to 6.3 mmol/L).
Experiment [10] deals with Mus musculus. The experiment in a line: Reduction in blood glucose in Kunming mouse assessed as blood glucose level at 25 nmol/kg, ip at administered 0 mins followed by first glucose challenge at 40 mins followed by second glucose challenge at 310 mins and measured at 430 mins by glucose tolerance test (reference value: 4.9 to 6.3 mmol/L).

For `CC[C@H](C)[C@H](NC(=O)[C@H](Cc1ccccc1)NC(=O)[C@H](CCC(=O)O)NC(=O)[C@H](CCCCN)NC(=O)[C@H](C)NC(=O)[C@H](C)NC(=O)[C@H](CCC(N)=O)NC(=O)CNC(=O)[C@H](CCC(=O)O)NC(=O)[C@H](CC(C)C)NC(=O)[C@H](Cc1ccc(O)cc1)NC(=O)[C@H](CO)NC(=O)[C@H](CO)NC(=O)[C@@H](NC(=O)[C@H](CC(=O)O)NC(=O)[C@H](CO)NC(=O)[C@@H](NC(=O)[C@H](Cc1ccccc1)NC(=O)[C@@H](NC(=O)CNC(=O)[C@H](CCC(=O)O)NC(=O)C1(NC(=O)[C@@H](N)Cc2cnc[nH]2)CC1)[C@@H](C)O)[C@@H](C)O)C(C)C)C(=O)N[C@@H](C)C(=O)N[C@@H](Cc1c[nH]c2ccccc12)C(=O)N[C@@H](CC(C)C)C(=O)N[C@H](C(=O)N[C@@H](CCCCN)C(=O)NCC(=O)N[C@@H](CCCNC(=N)N)C(N)=O)C(C)C`, the Activity with Mus musculus [1] came out at 7.5 mmol/L; with Mus musculus [2] it was 10.8 mmol/L; in the experiment on Mus musculus [3], 19.8 mmol/L; in the experiment on Mus musculus [4], 12.9 mmol/L; with Mus musculus [5] it was 17.2 mmol/L; in the experiment on Mus musculus [6], 13.8 mmol/L. Moreover, the Activity in the experiment with Mus musculus [7] was 6.5 mmol/L; in the experiment on Mus musculus [8], 5.9 mmol/L; in the experiment with Mus musculus [9], 21.2 mmol/L; in the experiment with Mus musculus [10] it was 7.1 mmol/L.
Take `CC[C@H](C)[C@H](NC(=O)[C@H](Cc1ccccc1)NC(=O)[C@H](CCC(=O)O)NC(=O)[C@H](CCCCN)NC(=O)[C@H](C)NC(=O)[C@H](C)NC(=O)[C@H](CCC(N)=O)NC(=O)CNC(=O)[C@H](CCC(=O)O)NC(=O)[C@H](CC(C)C)NC(=O)[C@H](Cc1ccc(O)cc1)NC(=O)[C@H](CO)NC(=O)[C@H](CO)NC(=O)[C@@H](NC(=O)[C@H](CC(=O)O)NC(=O)[C@H](CO)NC(=O)[C@@H](NC(=O)[C@H](Cc1ccccc1)NC(=O)[C@@H](NC(=O)CNC(=O)[C@H](CCC(=O)O)NC(=O)[C@H](C)CNC(=O)[C@@H](N)Cc1cnc[nH]1)[C@@H](C)O)[C@@H](C)O)C(C)C)C(=O)N[C@@H](C)C(=O)N[C@@H](Cc1c[nH]c2ccccc12)C(=O)N[C@@H](CC(C)C)C(=O)N[C@H](C(=O)N[C@@H](CCCCN)C(=O)NCC(=O)N[C@@H](CCCNC(=N)N)C(N)=O)C(C)C`: the Activity in the experiment with Mus musculus [1] turned out to be 6.1 mmol/L; with Mus musculus [2] it was 8.1 mmol/L; in the experiment with Mus musculus [3] it was 16.5 mmol/L; in the experiment on Mus musculus [4] it was 13.5 mmol/L; with Mus musculus [5], 16.6 mmol/L; with Mus musculus [6], 10.8 mmol/L. Besides, the Activity in the experiment with Mus musculus [7] stood at 6.9 mmol/L; with Mus musculus [8], 5.4 mmol/L; in the experiment with Mus musculus [9], 23.4 mmol/L; in the experiment on Mus musculus [10], 7.8 mmol/L.
